Results as given in patent US6506758B2, “Indole derivatives useful A.O. for the treatment of osteoporosis” (SmithKline Beecham Laboratoires Pharmceutiques, priority 1997, dated 2003).

Assays:
[1] = target: bafilomycin-sensitive ATPase in human kidney membranes; test: Inhibition of bafilomycin-sensitive ATPase in human kidney membranes; type: biochemical; conditions: read-out: IC50 h kidney
Experimental: Human kidney membranes were obtained from the cortex of a human kidney, frozen immediately after surgery, according to the method reported in the literature for bovine kidney (S. Gluck, J Biol. Chem., 265, 21957 (1990)).
Inhibition of bafilomycin-sensitive ATPase activity was assessed in purified membrane vesicles by measuring the release of inorganic phosphate (Pi) during 30 min of incubation at 37° C. in a 96-well plate either in the presence or in the absence of bafilomycin A1. The reaction medium contained 1 mM ATP, 10 mM HEPES-Tris pH 8, 50 mM KCl, 5 uM valinomycin, 5 uM nigericin, 1 mM CDTA-Tris,100 uM ammonium molybdate, 0.2 M sucrose and membranes (20 ug protein/ml). The reaction was initiated by MgSO4 (8-arm pipette) and stopped, after 30 min, by addition of 4 volumes of the malachite green reagent (96-arm pipette) prepared according to Chan [Anal. Biochem. 157, 375 (1986)]. Absorbance at 650 nm was measured after 2 min using a microplate reader. Results are expressed as nmol (Pi)×mg protein^−1×min^−1 and, for each experiment, represent the mean±sem of triplicates.

[2] = target: bafilomycin-sensitive ATPase of chicken osteoclast; test: Inhibition of bafilomycin-sensitive ATPase activity in purified chicken osteoclast membrane vesicles (Pi release); type: biochemical; conditions: membrane source not given, chicken osteoclast assumed
Experimental: Preparation of Crude Bone Microsomes from Calcium-starved Egg-laying Hens
Vesicles were prepared from medullar bone obtained from tibiae and femurs or egg-laying hens which were calcium-starved for at least 15 days. Briefly, bone fragments were scraped with a 24 scalpel blade, suspended in 40 ml of isolation medium (0.2 M sucrose, 50 mM KCl, 10 mM Hepes, 1 mM EGTA, 2 mM dithiotheitrol, pH 7.4) and filtered through a 100 μm pore size nylon mesh. The whole procedure was performed at 4° C. After homogenisation in a potter (20 strokes) in 40 ml of isolation medium an initial centrifugation (6,500×gmax×20 min) was performed to remove mitochondria and lysosomes. The supernatant was centrifuged at 100,000×gmax for 1 hr and the pellet was collected in 1 ml of isolation medium, divided into 200 μl aliquots, immediately frozen in liquid nitrogen and stored at −80° C. The protein content was determined using a Biorad colourimetric kit according to Bradford [M. Bradford, Anal. Biochem., 72, 248 (1976)]. For the proton transport assay, 5-10 μl of membranes were used.
Purification of osteoclast membranes. 1 ml of crude microsomal vesicles prepared above were applied (about 0.2 ml per tube ) on the top of a sucrose step-gradient consisting of 3.5 ml of 15%, 30% and 45% (w/w) sucrose in isolation medium and centrifuged at 280,000 gmax for 2 h (SW 41 Ti rotor). After centrifugation the 30-45% sucrose interfaces were collected, diluted approx. 20-fold in isolation medium and pelletted at 100,000 gmax for 1 hour (SW 28 rotor). […]
Inhibition of bafilomycin-sensitive ATPase activity was assessed in purified membrane vesicles by measuring the release of inorganic phosphate (Pi) during 30 min of incubation at 37° C. in a 96-well plate either in the presence or in the absence of bafilomycin A1. […] Absorbance at 650 nm was measured after 2 min using a microplate reader. Results are expressed as nmol (Pi)×mg protein^−1×min^−1 and, for each experiment, represent the mean±sem of triplicates.

| IC50 [1] [nM] | IC50 [2] [µM] | melting point [°C] | Structure (SMILES) |
| --- | --- | --- | --- |
| 1250 | 0.35 | – | CN1C(C)(C)CC(NC(=O)c2ccc(-c3cc4cc(Cl)c(Cl)cc4[nH]3)cc2)CC1(C)C [Example 1, 4-(5,6-Dichloro-1H-indol-2-yl)-N-(1,2,2,6,6-pentamethypiperidin-4-yl)benzamide] |
| 200 | 0.096 | – | COc1cc(C(=O)NC2CC(C)(C)N(C)C(C)(C)C2)ccc1-c1cc2cc(Cl)c(Cl)cc2[nH]1 [Example 2, 4-(5,6-Dichloro-1H-indol-2-yl)-3-methoxy-N-(1,2,2,6,6-pentamethylpiperidin-4yl)-benzamide] |
| – | 1.3 | – | COc1cc(-c2cc3cc(Cl)c(Cl)cc3[nH]2)ccc1C(=O)NC1CC(C)(C)N(C)C(C)(C)C1 [Example 3, 4-(5,6-Dichloro-1H-indol-2-yl)-2-methoxy-N-(1,2,2,6,6-pentamethylpiperidin-4-yl)-benzamide] |
| – | – | 204 | CN(C)CCCNC(=O)c1cccc(-c2cc3cc(Cl)c(Cl)cc3[nH]2)c1 [Example 5, 3-(5,6-Dichloro-1H-indol-2-yl)-N-(3-dimethylaminopropyl)benzamide] |
